Assay results as given in paper PMC2923275 (Biochemical pharmacology, 2010).

Assays:
[1] = test system: Toxoplasma gondii adenosine kinase; conditions: cited from earlier work
[2] = test system: adenosine kinase deficient (TgAK^-3) strain of T. gondii; test: Anti-toxoplasmic activity in tissue culture; format: cell-based, Toxoplasma gondii; conditions: TgAK^-3 in human fibroblasts
[3] = test system: wild type (RH) strain of T. gondii; test: Anti-toxoplasmic activity in tissue culture; format: cell-based, Toxoplasma gondii; conditions: wild type (RH) in human fibroblasts
[4] = test system: uninfected human foreskin fibroblasts; test: Host toxicity, MTT assay on uninfected host cells; conditions: infection: None

Compound | Km ([1]; read-out: Km (binding affinity), apparent Km equal to apparent Ki) [µM] | percent survival of parasite ([2]; 5 μM compound) [%] | percent survival of parasite ([2]; 10 μM compound) [%] | percent survival of parasite ([2]; 25 μM compound) [%] | percent survival of parasite ([2]; 50 μM compound) [%] | percent survival of parasite ([3]; 5 μM compound) [%] | percent survival of parasite ([3]; 10 μM compound) [%] | percent survival of parasite ([3]; 25 μM compound) [%] | percent survival of parasite ([3]; 50 μM compound) [%] | increase of relative binding affinity by inclusion of the 7-deaza motif ([1]; relative to 6-(p-methylbenzylthio)inosine) [fold] | host-toxicity (survival of uninfected host cells) ([4]; 5 μM compound) [%] | host-toxicity (survival of uninfected host cells) ([4]; 10 μM compound) [%] | host-toxicity (survival of uninfected host cells) ([4]; 25 μM compound) [%] | host-toxicity (survival of uninfected host cells) ([4]; 50 μM compound) [%]
6-Benzylthioinosine [Compound 22, reference compound] | 14.3 | 100 | 100 | 100 | 100 | 92.7 | 45.8 | 7.6 | 0.0 | – | – | – | – | –
7-deaza-6-(p-methylbenzylthio)inosines | – | – | – | – | – | – | – | – | – | 2.8 | – | – | – | –
COC(=O)c1ccc(CSc2ncnc3c2ncn3C2CC(CO)C(O)C2O)cc1 (stereo not shown) [Compound 14, Carbocyclic 6-(p-methoxycarbonylbenzylthio)inosine] | – | 100 | 100 | 100 | 100 | 53.9 | 6.3 | 1.5 | 0.0 | – | 100 | 99.4 | 88.7 | 87.1
COc1ccc(CSc2ncnc3c2ncn3C2CC(CO)C(O)C2O)cc1 (stereo not shown) [Compound 15, Carbocyclic 6-(p-methoxybenzylthio)inosine] | – | 98.4 | 100 | 100 | 100 | 48.3 | 1.9 | 0.0 | 0.0 | – | 100 | 100 | 94.3 | 82.1
OCC1CC(n2cnc3c(SCc4ccc(OC(F)(F)F)cc4)ncnc32)C(O)C1O (stereo not shown) [Compound 16, Carbocyclic 6-(p-trifluoromethoxybenzylthio)inosine] | – | 100 | 100 | 100 | 100 | 87.3 | 53.6 | 8.1 | 0.0 | – | 100 | 98.2 | 96.7 | 89.3
CS(=O)(=O)c1ccc(CSc2ncnc3c2ncn3C2CC(CO)C(O)C2O)cc1 (stereo not shown) [Compound 17, Carbocyclic 6-(p-methylsulfonylbenzylthio)inosine] | – | 100 | 100 | 100 | 100 | 66.8 | 21.2 | 0.0 | 0.0 | – | 100 | 100 | 100 | 100
OCC1CC(n2cnc3c(SCc4ccc(Cl)cc4Cl)ncnc32)C(O)C1O (stereo not shown) [Compound 18, Carbocyclic 6-(o,p-dichlorobenzylthio)inosine] | – | 100 | 100 | 100 | 100 | 84.4 | 45.1 | 0.0 | 0.0 | – | 100 | 100 | 100 | 90.6
OCC1CC(n2cnc3c(SCc4ccc(Cl)c(Cl)c4)ncnc32)C(O)C1O (stereo not shown) [Compound 19, Carbocyclic 6-(m,p-dichlorobenzylthio)inosine] | – | 100 | 100 | 100 | 100 | 59.7 | 17.8 | 8.3 | 1.5 | – | 100 | 100 | 100 | 73.1
OCC1CC(n2cnc3c(SCc4c(F)cccc4Cl)ncnc32)C(O)C1O (stereo not shown) [Compound 20, Carbocyclic 6-(o-chloro-o-fluorobenzylthio)inosine] | – | 100 | 100 | 100 | 100 | 56.3 | 15.6 | 3.7 | 0.0 | – | 100 | 100 | 100 | 100
Cc1ccc(CSc2ncnc3c2ncn3C2CC(CO)C(O)C2O)c(C)c1C (stereo not shown) [Compound 21, Carbocyclic 6-(o,m,p-trimethylbenzylthio)inosine] | – | 100 | 100 | 100 | 100 | 71.0 | 32.7 | 0.0 | 0.0 | – | 100 | 100 | 90.6 | 93.2
